Measurements published in US20100310660A1, “DRY POWDER MICROPARTICLES FOR PULMONARY DELIVERY” (TAIPEI MEDICAL UNIVERSITY, priority 2009, published 2010).
Structures can show the parent of a compound that is named as a salt.

System: A549 cells
Assay: Photocytotoxicity (MTT assay after LED irradiation)
Format: cell-based, Human
Conditions: 0.5 μg/ml Hp, 3 hours
Method: Human lung adenocarcinoma A549 cells were kept in a humidified incubator containing 5% CO2 at 37° C. A549 cells were cultured in DMEM supplemented with 10% fetal bovine serum (FBS) and 1% penicillin-streptomycin (GIBCO BRL, USA). The cells were routinely grown in tissue culture flask and harvested with a solution of 1% trypsin while in the logarithmic phase of growth. The cells were kept in the above culture conditions for experiments.
A549 cells were grown in 96-well plates at a density of 8×10^3 cells/well for 24 hours. […] The cells were incubated for 3 hours (protection from light) and washed once with 100 μl PBS/well. The no phenol red medium (100 μl/well) was added to the cells and then irradiated with various doses of light using LED (635±5 nm, 60 mW/cm^2) light source. After light irradiation, the original medium was removed and DMEM containing 10% FBS was added to each well. Twenty-four hours later, cell survival was measured using an MTT [3(4,5-dimethyl-thiazoyl-2-yl) 2,5 diphenyl-tetrazolium bromide] assay. The MTT assay was based on the activity of mitochondria dehydrogenases wherein a water-soluble tetrazolium salt was reduced to a purple insoluble formazan product. The amount of MTT formazan product was analyzed with spectrophotometer at the absorbance of 570 nm.

For `CC1=C(CCC(=O)O)c2cc3[nH]c(cc4nc(cc5[nH]c(cc1n2)c(C)c5C(C)O)C(C)=C4C(C)O)c(C)c3CCC(=O)O` (centres unmarked) [Hp, Hematoporphyrin Dihydrochloride], the cells alive (irradiation at 4 J/cm2) was 89% and the cells alive (irradiation at 12 J/cm2) was 75%.
